From EP0487095B1, “Pyridyl derivatives, medicines containing these compounds and processes for their preparation” (Dr. Karl Thomae GmbH, priority 1990, dated 1992)

Tests used:
[1] = target: T1, Thromboxansynthetase (Homo sapiens, UniProt P24557); test: Inhibition of thromboxane synthetase (TXB2 formation from 14C-arachidonic acid in platelet suspension); type: cell-based; settings: 10 min preincubation at room temperature, read-out: Hemmung der Thromboxansynthetase IC₅₀
T1 construct: Aliquots der erhaltenen Plättchensuspension werden mit der Testsubstanz bzw; Lösungsmittel als Kontrolle 10 Minuten bei Raumtemperatur inkubiert; endogenous in cells; host or cells: gel-filtered human platelets from venous blood
T1 sequence (P24557 1-533): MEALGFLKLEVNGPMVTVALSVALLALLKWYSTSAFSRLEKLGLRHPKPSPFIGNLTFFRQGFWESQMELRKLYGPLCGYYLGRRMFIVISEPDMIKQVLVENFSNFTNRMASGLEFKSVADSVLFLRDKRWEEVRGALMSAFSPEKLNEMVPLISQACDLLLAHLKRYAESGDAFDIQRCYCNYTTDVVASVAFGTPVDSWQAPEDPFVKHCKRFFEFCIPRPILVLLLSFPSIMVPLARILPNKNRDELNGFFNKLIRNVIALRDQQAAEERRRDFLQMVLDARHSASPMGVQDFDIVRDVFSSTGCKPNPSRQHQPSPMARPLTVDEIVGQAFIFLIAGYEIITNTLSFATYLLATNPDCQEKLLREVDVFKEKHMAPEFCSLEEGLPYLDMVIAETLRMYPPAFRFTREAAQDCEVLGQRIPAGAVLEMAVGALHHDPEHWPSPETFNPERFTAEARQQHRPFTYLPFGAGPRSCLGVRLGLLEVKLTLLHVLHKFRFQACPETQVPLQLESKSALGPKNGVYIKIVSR
Protocol: 3. Bestimmung der Hemmwirkung auf die Thromboxansynthetase
Venöses Humanblut wird mit 13 mM Na3-Citrat antikoaguliert und 10 Minuten bei 170 x g zentrifugiert. Das überstehende plättchenreiche Plasma wird zur Entfernung der Plasmaproteine über eine Sepharose-2B-Säule gegeben. Aliquots der erhaltenen Plättchensuspension werden mit der Testsubstanz bzw. Lösungsmittel als Kontrolle 10 Minuten bei Raumtemperatur inkubiert und nach Zugabe 14C-markierter Arachidonsäure die Inkubation weitere 10 Minuten fortgesetzt. Nach Abstoppen mit 50 µl Zitronensäure wird 3 x mit 500 µl Essigester extrahiert und die vereinigten Extrakte mit Stickstoff abgeblasen. Der Rückstand wird in Essigester aufgenommen, auf DC-Folie aufgetragen und mit Chloroform:Methanol:Eisessig:Wasser (90:8:1:0,8, v/v/v/v) getrennt. Die getrockneten DC-Folien werden 3 Tage auf Röntgenfilm gelegt, die Autoradiogramme entwickelt und mit ihrer Hilfe die aktiven Zonen auf der Folie markiert. Nach Ausschneiden wird die Aktivität im Szintillationszähler bestimmt und die Hemmung der TXB2-Bildung berechnet. Die IC₅₀ wird durch lineare Interpolation bestimmt.

[2] = target: T2, Thromboxan (Homo sapiens, UniProt P21731); test: Thromboxane-antagonistic effect (displacement of 3H-labelled ligand from platelet suspension); type: binding; settings: 60 min at room temperature, read-out: Thromboxanantagonistische Wirkung IC₅₀
T2 construct: Aliquote der erhaltenen Plättchensuspension werden mit der Testsubstanz, dem Liganden (3H-markiert) und einem Marker (14C-markiert) 60 Minuten bei Raumtemperatur inkubiert; endogenous in cells; host or cells: gel-filtered human platelets from venous blood
T2 sequence (P21731 1-343): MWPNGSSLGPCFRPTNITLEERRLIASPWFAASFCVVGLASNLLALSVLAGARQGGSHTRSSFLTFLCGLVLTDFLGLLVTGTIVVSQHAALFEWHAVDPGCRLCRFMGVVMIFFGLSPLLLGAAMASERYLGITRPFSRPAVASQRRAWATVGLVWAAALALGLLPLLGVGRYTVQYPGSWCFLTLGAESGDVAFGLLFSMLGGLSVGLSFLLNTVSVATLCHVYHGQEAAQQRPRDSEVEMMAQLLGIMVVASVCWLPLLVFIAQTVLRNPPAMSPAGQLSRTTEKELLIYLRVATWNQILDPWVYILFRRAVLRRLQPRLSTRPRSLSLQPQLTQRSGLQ
Protocol: 2. Thromboxanantagonistische Wirkung
Venöses Humanblut wird mit 13 mM Na3-Citrat antikoaguliert und 10 Minuten bei 170 x g zentrifugiert. Das überstehende plättchenreiche Plasma wird zur Entfernung der Plasmaproteine über eine Sepharose-2B-Säule gegeben. Aliquote der erhaltenen Plättchensuspension werden mit der Testsubstanz, dem Liganden (3H-markiert) und einem Marker (14C-markiert) 60 Minuten bei Raumtemperatur inkubiert und danach 20 Sekunden bei 10 000 x g abzentrifugiert. Der Überstand wird abgezogen und das Pellet in NaOH gelöst. Die 3H-Aktivität im Überstand entspricht dem freien Liganden, 14C ergibt die Konzentration des Markers. 3H im Pellet entspricht dem gebundenen Liganden, 14C wird zur Korrektur für Ligand im Extrazellulärraum verwendet. Aus den Bindungswerten für verschiedene Konzentrationen der Testsubstanz wird nach Iteration die Verdrängungskurve ermittelt und die IC₅₀ bestimmt.

[3] = system: Thrombozytenaggregation; test: Collagen-induced platelet aggregation (Born and Cross) in platelet-rich plasma; type: cell-based; settings: Homo sapiens; platelet-rich plasma of healthy subjects, 10 min preincubation at 37°C, 50% change of optical density; read-out: Hemmung der collagen-induzierten Aggregation EC₅₀
Description: 1. Antithrombotische Wirkung
Die Thrombozytenaggregation wird nach der Methode von Born und Cross (J. Physiol. 170, 397 (1964)) in plättchenreichem Plasma gesunder Versuchspersonen gemessen. Zur Gerinnungshemmung wird das Blut mit Natriumcitrat 3,14 % im Volumenverhältnis 1:10 versetzt.
Collagen-induzierte Aggregation
Der Verlauf der Abnahme der optischen Dichte der Plättchensuspension wird nach Zugabe der aggregationsauslösenden Substanz photometrisch gemessen und registriert. Aus dem Neigungswinkel der Dichtekurve wird auf die Aggregationsgeschwindigkeit geschlossen. Der Punkt der Kurve, bei dem die größte Lichtdurchlässigkeit vorliegt, dient zur Berechnung der "optical density".
Die Collagen-Menge wird möglichst gering gewählt, aber doch so, daß sich eine irreversibel verlaufende Reaktionskurve ergibt. Verwendet wird das handelsübliche Collagen der Firma Hormonchemie, München. Vor der Collagen-Zugabe wird das Plasma jeweils 10 Minuten mit der Substanz bei 37°C inkubiert.
Aus den erhaltenen Meßzahlen wird graphisch eine EC₅₀ bestimmt, die sich auf eine 50%ige Änderung der "optical density" im Sinne einer Aggregationshemmung bezieht.

IC50 [1] [µM]	IC50 [2] [µM]	SMILES	EC50 [3] [µM]
0.004	0.004	O=C(O)CCCC=C(c1ccc(NC(=O)C2CC2c2ccc(Cl)cc2)cc1)c1cccnc1 (single isomer, unassigned; (-)) [A, (-)-5E-6-[4-(Z-2-(4-Chlorphenyl)-cyclopropyl-1-carboxamido)-phenyl]-6-(3-pyridyl)-hex-5-ensäure]	0.5
0.004	0.008	O=C(O)CCC/C=C(/c1cccnc1)c1cccc(NC(=O)CCc2ccc(Cl)cc2)c1 [B, 5E-6-[3-(3-(4-Chlorphenyl)-propionylamino)-phenyl]-6-(3-pyridyl)-hex-5-ensäure]	2.2
0.032	0.012	O=C(O)CCC/C=C(/c1cccnc1)c1cccc(NC(=S)Nc2ccc(Cl)cc2)c1 [C, 5E-6-[3-(3-(4-Chlorphenyl)-thioureido)-phenyl]-6-(3-pyridyl)-hex-5-ensäure]	0.8
0.09	0.017	CN(C(=S)Nc1ccc(Cl)cc1Cl)c1cccc(/C(=C\CCCC(=O)O)c2cccnc2)c1 [D, 5E-6-[3-(3-(2,4-Dichlorphenyl)-1-methylthioureido)-phenyl]-6-(3-pyridyl)-hex-5-ensäure]	1.2
